What was measured:
[1] = system: bleomycin-induced lung fibrosis; assay: Bleomycin-induced lung injury mouse model; assay type: in vivo; conditions: for inhibition of bleomycin-evoked lung fibrosis, relative potency: 200 μg/mouse bleomycin, various concentrations
Protocol: Mice were divided into 7 groups, each containing 5 animals. All groups were administered i.p. saline+7% ethanol as vehicle. Group 1 received only vehicle. Groups 2-7 received intratracheal bleomycin. Bleomycin is an antibiotic having antineoplastic activity. It is used clinically to treat malignancies such as lymphoma and testicular cancer. However, it has several side effects such as causing lung fibrosis characterized by diffuse alveolar hemorrhage and marked accumulation of inflammatory cells and an increase in collagen synthesis. Additionally, Group 3 received Trolox antioxidant, Group 4 received H1, Group 5 received H2, Group 6 received H3, and Group 7 received H4. All hepoxilins were dissolved in 7 μl ethanol and diluted to 100 μl saline for i.p. administration. All compounds were administered daily at the dose of 100 μg/20 g (5000 μg/kg) mouse for 8 days. Lungs from all animals were perfused and fixed for histology. […] As in section B1 above, the effective concentration of the drugs is unknown due to the still undetermined uptake and distribution in the body. The present study served as an indicator of biological activity in vivo. The study was also conducted using saline or 200 μg/mouse bleomycin. In these studies the hepoxilin analogs H1 and H2 were administered in various concentrations (FIGS. 14A-14E). […] Lung fibrosis was associated with increased collagen synthesis (FIGS. 15A, 15B). […] Collagen staining was done using sirius red and fast green.

[2] = system: bleomycin-evoked vascular permeability; assay: Bleomycin-evoked skin vascular permeability (Evans Blue); assay type: in vivo; conditions: 100 ng intradermally, bleomycin 12 μg
Protocol: H1 and 2 blocked the bleomycin (12 μg)—evoked vascular permeability at 100 ng intradermally. (FIGS. 18 and 19). Vascular permeability was measured using Evans Blue I.V. Hepoxilin analogs were intradermally applied and within 30 minutes, a formamide extraction of punched skin was done. Extraction and absorbance was read at 620 nm.

human neutrophils [3] = assay: HxA3-induced rise in intracellular calcium in neutrophils with internalised GTP-γ-S or GTP; assay type: cell-based; conditions: for effect of internalised nucleotide on HxA3-induced rise in intracellular calcium: approximate cytosolic concentration 21 μM
From the text: (§1) For measurement of intracellular calcium, the cells were centrifuged and loaded with INDO-1 AM (see Methods for details). The change in intracellular calcium was monitored with fluorescence spectrophotometer at 331 nm excitation and 410 nm emission. […] Data represents the Mean±SD (n=4 separate experiments).
(§2) The method of Jaconi et al (1993, J. Biol. Chem. 268, 26077-26078] was employed with modifications to incorporate GTP-γ-S or GTP into human neutrophils. Specifically, 20×10^6 cells were incubated in 100 μl of sucrose-rich (500 mM) buffer containing in mM: NaCl 140, KCl 5, MgCl2 1, Hepes sodium-free 10, glucose 10, and EGTA 1, 10% polyetylene glycol 1000, pH 7.3. The buffer either contained nothing else (control) or GTP-γ-S (50 mM) or GTP (50 mM). The cells were incubated for 15 min at 37° C. to allow fluid-phase endocytosis of extracellular material. The cells were hypotonically shocked during 2 min at 37° C. by the addition of 1 mL of hypotonic medium made up of 1 part normal medium and 0.66 parts of water [Hallet & Campbell. 1983, Immunology, 50, 487-495]. The cells were then centrifuged at 900 rpm×5 min and resuspended in 2 mL of calcium-free assay medium for the binding studies or in RPMI 1640 for the calcium measurements. […] The particulate matter was sedimented through centrifugation and fluorescence in the supernatant was measured in a fluorescence spectrophotometer and 430 nm excitation, 540 nm emission using dilutions of the dye as standard. While unshocked neutrophils contained virtually no fluorescence above background, the shocked cells contained approximately 24 ng dye/4×10^6 cells. […]
(§3) Intracellular free calcium concentrations were monitored continuously in a Perkin-Elmer fluorescence spectrophotometer (Model 65040) using Indo-I AM-loaded neutrophils. […]
(§4) Unloaded dye was removed by centrifugation and the cells were resuspended in fresh RPMI 1640(1 mL). […] The resulting effect was recorded on a chart recorder (LKB model 2210, Pharmacia, Sweden) at 1 cm/min chart speed for the next 5 min (FIG. 20).

human neutrophils [4] = assay: Rise in intracellular calcium in INDO-1AM loaded neutrophil suspensions, normal vs Type 1 diabetic; assay type: cell-based
From the text: It was previously reported that the native HX cause a rise in intracellular calcium in suspensions of human neutrophils. […] In view of the findings reported above on alterations in the hepoxilin binding protein in diabetes, it was investigated whether the response to varied amounts of hepoxilin in terms of calcium release was altered in Type 1 diabetic neutrophils. This involved measurement of the rise in intracellular calcium in INDO-1AM loaded neutrophil suspensions spectrofluorometrically after addition of HxA3.
Normal and diabetic neutrophils were compared to 4 concentrations of HxA3, i.e. 100, 200, 500 and 1000 ng added in 1 μl DM50 to 2×10^6 cells/ml. […] Additional data was obtained by administering 1000 ng of hepoxilin five minutes after the first test. Previous results with normal neutrophils have shown that the response to a second addition of hepoxilin is blunted depending on the extent of calcium rise in the first test. […]
as §3, §4

[5] = system: hepoxilin binding protein in neutrophils; assay: Binding of [3H]-HxA3 (8S) to neutrophils with internalised GTP-γ-S or GTP; set-up: species or system human; conditions: approximate cytosolic concentration 21 μM
From the text: as §1
as §2, with “487-495].” for “487-495]. The cells were then centrifuged at 900 rpm×5 min and resuspended in 2 mL of calcium-free assay medium for the binding studies or in RPMI 1640 for the calcium measurements.”, “standard.” for “standard. While unshocked neutrophils contained virtually no fluorescence above background, the shocked cells contained approximately 24 ng dye/4×10^6 cells.”

SMILES: CCCCC/C=C\CC1CC1/C=C/[C@@H](O)C/C=C\CCCC(=O)OC (stereo partly drawn) [H1, 8(S)-hydroxy-11 ,12-cyclopropyl-eicosa-5Z, 10E, 14Z-trienoic acid methyl ester]
- inhibition of bleomycin-evoked lung fibrosis, relative potency [1]: most potent
- dose dependence of activity against lung fibrosis ([1]; 400 μg/kg, 2 mg/kg, 4 mg/kg): dose dependent
- potency against lung fibrosis compared with Amifostine and Trolox ([1]; Amifostine 200 mg/kg, Trolox 30 mg/kg): more potent than Amifostine (200 mg/kg) or Trolox (30 mg/kg)
- threshold activity against lung fibrosis ([1]; i.p.): 400 µg/kg
- bleomycin-evoked vascular permeability [2]: blocked

SMILES: Nc1nc2c(ncn2[C@@H]2O[C@H](COP(=O)(O)OP(=O)(O)OP(=O)(O)O)[C@@H](O)[C@H]2O)c(=O)[nH]1 [GTP]
- effect of internalised nucleotide on HxA3-induced rise in intracellular calcium (human neutrophils [3]): no significant change

SMILES: CCCCC/C=C\C[C@@H]1O[C@H]1/C=C/C(O)C/C=C\CCCC(=O)O (stereo partly drawn) [HxA3, 8(S,R)-hydroxy-11(S),12(S)-epoxy-eicosa-5Z, 9E, 14Z-trienoic acid]
- calcium response to second addition, diabetic vs normal neutrophils (human neutrophils [4]; 1000 ng five minutes after the first test): more inhibition
- rise in intracellular free calcium, diabetic vs normal neutrophils (human neutrophils [4]; 100, 200, 500 and 1000 ng in 1 μl to 2×10^6 cells/ml): diabetic neutrophils are more responsive
- change in intracellular calcium (human neutrophils [3]; 2×10^6 cells in 1 mL calcium-free buffer, 37° C.): rapid rise in intracellular calcium

SMILES: Nc1nc2c(ncn2[C@@H]2O[C@H](COP(=O)(O)OP(=O)(O)OP(O)(O)=S)[C@@H](O)[C@H]2O)c(=O)[nH]1 [GTP-γ-S]
- effect of internalised nucleotide on HxA3-induced rise in intracellular calcium (human neutrophils [3]): inhibition
- effect of internalised nucleotide on binding of [3H]-HxA3 [5]: inhibition

SMILES: CCCCC/C=C\CC1CC1/C=C/[C@H](O)C/C=C\CCCC(=O)OC (stereo partly drawn) [H2, 8(R)hydroxy-11,12-cyclopropyl-eicosa-5Z, 10E, 14Z-trienoic acid methyl ester]
- inhibition of bleomycin-evoked lung fibrosis, relative potency [1]: most potent
- bleomycin-evoked vascular permeability [2]: blocked

Source: US6673785B1, “Use of hepoxilins or hepoxilin analogs as antidiabetics, antiinflammatory agents” (priority 1999, dated 2004)
